Reference: publication PMC7144120, “Psoralen Derivatives as Inhibitors of Mycobacterium tuberculosis Proteasome” (Molecules, 2020)

How the values were obtained:
[1] = molecular target: T1, Mtb proteasome (Mycobacterium tuberculosis, UniProt P9WHT9); assay: biochemical; assay type: biochemical
T1 construct: made in house

[2] = system: ß5i of IP; settings: cited from earlier work; for RA at 10 µM against ß5i of IP: residual activity of β5i in the presence of 10 μM compound; for Ki: read-out: Ki against ß5i of IP

T1 sequence (P9WHT9 whole entry, looked up): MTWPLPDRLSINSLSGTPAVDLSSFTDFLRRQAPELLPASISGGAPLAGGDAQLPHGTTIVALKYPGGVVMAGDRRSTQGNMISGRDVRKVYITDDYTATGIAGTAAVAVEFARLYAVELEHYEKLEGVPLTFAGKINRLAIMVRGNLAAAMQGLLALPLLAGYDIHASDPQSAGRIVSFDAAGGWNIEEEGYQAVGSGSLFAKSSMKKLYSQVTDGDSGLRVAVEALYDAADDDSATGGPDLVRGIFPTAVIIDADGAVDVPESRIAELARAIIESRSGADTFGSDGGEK

Row | Compound | RA at 100 µM against Mtb [1] [%] | RA at 10 µM against ß5i of IP [2] [%] | Ki [2] [µM]
1 | Cc1cc(-c2coc3cc4oc(=O)c(CCC(=O)O)c(C)c4cc23)c(C)o1 [Compound 23] | 76 | 100 | –
2 | Cc1c(CCC(=O)O)c(=O)oc2cc3occ(C4CCCCC4)c3cc12 [Compound 24] | 71 | 102 | –
3 | Cc1c(CC(=O)O)c(=O)oc2cc3occ(-c4ccccc4)c3cc12 [Compound 25] | 96 | – | 2.4 ± 0.4
4 | COc1ccc(-c2coc3cc4oc(=O)c(CC(=O)O)c(C)c4cc23)cc1 [Compound 26] | 50 | – | 8.2 ± 0.5
5 | COc1cccc(-c2coc3cc4oc(=O)c(CC(=O)O)c(C)c4cc23)c1 [Compound 27] | 98 | – | 7 ± 0.2
6 | Cc1c(CC(=O)O)c(=O)oc2cc3occ(C(C)(C)C)c3cc12 [Compound 28] | 97 | 85 | –
7 | Cc1coc2cc3oc(=O)c(CC(=O)O)c(C)c3cc12 [Compound 29] | 61 | 88 | –
8 | Cc1cc(-c2coc3cc4oc(=O)c(CC(=O)O)c(C)c4cc23)c(C)s1 [Compound 30] | 93 | – | 36.5 ± 7.1
9 | Cc1c(CC(=O)O)c(=O)oc2cc3occ(-c4ccco4)c3cc12 [Compound 31] | 79 | – | 89.3 ± 2
10 | Cc1cc(-c2coc3cc4oc(=O)c(CC(=O)O)c(C)c4cc23)c(C)o1 [Compound 32] | 100 | – | 351 ± 48
11 | Cc1c(CC(=O)O)c(=O)oc2cc3occ(C4CCCCC4)c3cc12 [Compound 33] | 90 | – | 198 ± 21
12 | O=C(O)Cc1cc2cc3c(-c4ccccc4)coc3cc2oc1=O [Compound 34] | 54 | – | 3.8 ± 1.1
13 | Cc1c(CCC(=O)O)c(=O)oc2c(C)c3occ(-c4ccccc4)c3cc12 [Compound 35] | 100 | – | 43.1 ± 15
14 | COc1cccc(-c2coc3c(C)c4oc(=O)c(CCC(=O)O)c(C)c4cc23)c1 [Compound 36] | 87 | 72 | –
15 | COc1ccc(-c2coc3c(C)c4oc(=O)c(CCC(=O)O)c(C)c4cc23)cc1 [Compound 37] | 87 | 87 | –
16 | Cc1c(CCC(=O)O)c(=O)oc2c(C)c3occ(-c4ccc(Cl)cc4)c3cc12 [Compound 38] | 47 | 89 | –
17 | Cc1c(CCC(=O)N(C)CC#N)c(=O)oc2cc3occ(-c4ccccc4)c3cc12 [Compound 40] | 100 | 92 | –
18 | Cc1c(CCC(=O)N(C)CC#N)c(=O)oc2cc3occ(-c4ccc(Br)cc4)c3cc12 [Compound 41] | 91 | 107 | –
19 | Cc1coc2cc3oc(=O)c(CCC(=O)N(C)CC#N)c(C)c3cc12 [Compound 42] | 99 | 93 | –
20 | Cc1cc(-c2coc3cc4oc(=O)c(CCC(=O)N(C)CC#N)c(C)c4cc23)c(C)s1 [Compound 43] | 55 | 107 | –
21 | Cc1c(CCC(=O)N(C)CC#N)c(=O)oc2cc3occ(-c4ccco4)c3cc12 [Compound 44] | 82 | 86 | –
22 | Cc1c(CCC(=O)N(C)CC#N)c(=O)oc2cc3occ(C4CCCCC4)c3cc12 [Compound 45] | 92 | 111 | –
23 | Cc1c(CCC(=O)NCC#N)c(=O)oc2cc3occ(-c4ccc(Br)cc4)c3cc12 [Compound 46] | 82 | 107 | –
24 | Cc1coc2cc3oc(=O)c(CCC(=O)NCC#N)c(C)c3cc12 [Compound 47] | 95 | 105 | –
25 | Cc1cc(-c2coc3cc4oc(=O)c(CCC(=O)NCC#N)c(C)c4cc23)c(C)s1 [Compound 48] | 100 | 109 | –
26 | Cc1c(CCC(=O)NCC#N)c(=O)oc2cc3occ(-c4ccco4)c3cc12 [Compound 49] | 100 | 97 | –
27 | Cc1c(CCC(=O)NCC#N)c(=O)oc2cc3occ(C4CCCCC4)c3cc12 [Compound 50] | 96 | 102 | –
28 | Cc1c(CC(=O)N(C)CC#N)c(=O)oc2cc3occ(-c4ccccc4)c3cc12 [Compound 51] | 93 | 97 | –
29 | Cc1c(CC(=O)N(C)CC#N)c(=O)oc2cc3occ(-c4ccc(Br)cc4)c3cc12 [Compound 52] | 70 | 86 | –
30 | Cc1c(CC(=O)N(C)CC#N)c(=O)oc2cc3occ(C(C)(C)C)c3cc12 [Compound 53] | 97 | 96 | –
